Like-named read-outs stand apart in the source and are kept apart here.
Key:
B-Raf = B-Raf (Homo sapiens, UniProt P15056); test: Enzyme binding assay (Kinomescan)
Experimental: Enzyme Binding Assays (Kinomescan)
The kinase enzyme binding activities of compounds disclosed herein were determined using a proprietary assay which measures active site-directed competition binding to an immobilized ligand (Fabian, M. A. et al., Nature Biotechnol., 2005, 23:329-336). These assays were conducted by DiscoverX (formerly Ambit; San Diego, Calif.). The percentage inhibition produced by incubation with a test compound is calculated relative to the non-inhibited control.

[1] = test system: intestinal mucosa biopsies from the inflamed regions of the colon of IBD patients; test: Human biopsy assay (cytokine release from intestinal mucosa biopsies of IBD/UC patients); format: cell-based; details: in vitro
Experimental: Intestinal mucosa biopsies are obtained from the inflamed regions of the colon of IBD patients. The biopsy material is cut into small pieces (2-3 mm) and placed on steel grids in an organ culture chamber at 37° C. in a 5% CO2/95% O2 atmosphere in serum-free media. DMSO control or test compounds at the desired concentration are added to the tissue and incubated for 24 hr in the organ culture chamber. The supernatant is harvested for determination of IL-6, IL-8, IL-1β and TNFα levels by R&D ELISA.

BDF1 mice = test: TNBS-induced colitis in mice; format: in vivo, mouse; details: for inflammatory cell infiltrate in the reticular and lamina propria zones / activity in the in vivo model of colonic inflammation (histopathology analysis): TNBS; for activity in the in vivo model of colonic inflammation (histopathology analysis): 2 days; for ulcer grade and epithelial repair compared to the vehicle control: dosed orally at 5 mg/kg
Experimental: (C) TNBS-Induced Colitis in Mice […] On Day 0 of the study TNBS (200 μL) is administered intra-colonically via a plastic catheter followed by BID dosing of the vehicle, reference or test compound for 2 or 4 days. During the study animals are weighed every day and stool observations are made and recorded as a score, based on stool consistency. At the time of sacrifice on Day 2 (or Day 4) the large intestine is removed and the length and weight recorded. Sections of the colon are taken for either MPO analysis to determine neutrophil infiltration or for histopathology involving scoring to determine disease severity.

[2] = Hepatic microsomal stability; format: in vitro ADME, human; details: for Mean hepatic extraction ratio (Eh) / microsomal CLint at 0.1 μM: human hepatic microsomes, arithmetic mean of two experiments; for microsomal CLint at 0.1 μM: pooled liver microsomes, read-out: Mean intrinsic clearance; for hepatic clearance: summary of Tables 9a and 9b (microsomes and hepatocytes; human, dog, rat)
Experimental: (§1) Hepatic Microsomal Stability
(§2) • Microsomal stability assays were performed with incubations of test compounds at 0.1 μM (n=2, final DMSO concentration 0.25%), and carried out using pooled human, dog and rat hepatic microsomes from Xenotech (Lots 1210153, 0810143 and 1110042, respectively) at 0.25 mg protein/mL in the presence of co-factor, NADPH. The incubations were performed at 37° C. with 100 μL aliquots taken from the incubation, at 0, 2, 5, 10 and 20 minutes and reactions terminated by addition of 100 μL of acetonitrile containing carbamazepine as analytical internal standard. […] Half-life values were calculated from the relationship
(§3) where λ was the slope of the Ln concentration vs time curve. • The in vitro intrinsic clearance, CIint (mL/min/kg), was calculated and scaled to hepatic extraction ratios using the following scaling parameters and formulae.
(§4) CIint(tissue clearance) mL/min/kg=[0.693/t½(min)]×[1/microsomal protein concentration mg/mL]×[mg microsomes/g liver]×[g liver/kg body weight]
(§5) CIint(hepatic clearance) mL/min/kg=hepatic blood flow×CIint/(hepatic blood flow+CIint)
(§6) Hepatic extraction ratio(Eh)=CIint(hepatic clearance) mL/min/kg/hepatic blood flow(mL/min/kg)

[3] = Cryopreserved hepatocyte stability; format: in vitro ADME; details: arithmetic mean of two experiments; for hepatocyte CLint at 0.1 μM: read-out: Mean intrinsic clearance
Experimental: Cryopreserved Hepatocyte Stability
• Hepatocyte stability assays were performed with incubations of test compounds (0.1 μM initial concentration, n=2) carried out with pooled human, dog and rat cryopreserved hepatocytes from Celsis (Lot numbers RRW, KLI and WAP, respectively) at a cell density of 0.5 million cells/mL. The incubations were performed at 37° C. with 100 μL samples taken from the incubation, at 0, 10, 20, 45 and 90 minutes, and reactions terminated by addition of 100 μL of acetonitrile containing carbamazepine as analytical internal standard. […] Half-life values were calculated from the relationship
T1/2(min)=−0.693/λ • where λ was the slope of the Ln concentration vs time curve. • Standard compounds testosterone, midazolam and 4-methylumbelliferone are included in the assay design. These compounds give an indication of the metabolic capacity of the cryopreserved preparations for both Phase I and Phase II reactions. • In vitro intrinsic clearance (CIint), as μL/min/million cells was calculated by applying the following formula to the half-life values:
CIint(Tissue Clearance) mL/min/kg=[0.693/t½(min)]×[1/hepatocyte concentration(million cells/mL)]×[million cells/g liver]×[g liver/kg body weight]
CIint(Hepatic clearance) mL/min/kg=hepatic blood flow×CIint/(hepatic blood flow+CIint)
Hepatic extraction ratio(Eh)=CIint(Hepatic clearance) mL/min/kg/hepatic blood flow(mL/min/kg)

[4] = Hepatic microsomal stability; format: in vitro ADME; details: arithmetic mean of two experiments; for microsomal CLint at 0.1 μM: pooled liver microsomes, read-out: Mean intrinsic clearance
Experimental: as §1, §2, §3, §4, §5, §6

[5] = target: T1, human ether a go-go (hERG) channel (Homo sapiens, UniProt Q12809); test: hERG inhibition (IonWorks patch clamp electrophysiology); format: cell-based; details: maximum final assay concentration 3 μM
T1 construct: a Chinese Hamster Lung cell line stably expressing the full length hERG channel
T1 sequence (Q12809 whole entry): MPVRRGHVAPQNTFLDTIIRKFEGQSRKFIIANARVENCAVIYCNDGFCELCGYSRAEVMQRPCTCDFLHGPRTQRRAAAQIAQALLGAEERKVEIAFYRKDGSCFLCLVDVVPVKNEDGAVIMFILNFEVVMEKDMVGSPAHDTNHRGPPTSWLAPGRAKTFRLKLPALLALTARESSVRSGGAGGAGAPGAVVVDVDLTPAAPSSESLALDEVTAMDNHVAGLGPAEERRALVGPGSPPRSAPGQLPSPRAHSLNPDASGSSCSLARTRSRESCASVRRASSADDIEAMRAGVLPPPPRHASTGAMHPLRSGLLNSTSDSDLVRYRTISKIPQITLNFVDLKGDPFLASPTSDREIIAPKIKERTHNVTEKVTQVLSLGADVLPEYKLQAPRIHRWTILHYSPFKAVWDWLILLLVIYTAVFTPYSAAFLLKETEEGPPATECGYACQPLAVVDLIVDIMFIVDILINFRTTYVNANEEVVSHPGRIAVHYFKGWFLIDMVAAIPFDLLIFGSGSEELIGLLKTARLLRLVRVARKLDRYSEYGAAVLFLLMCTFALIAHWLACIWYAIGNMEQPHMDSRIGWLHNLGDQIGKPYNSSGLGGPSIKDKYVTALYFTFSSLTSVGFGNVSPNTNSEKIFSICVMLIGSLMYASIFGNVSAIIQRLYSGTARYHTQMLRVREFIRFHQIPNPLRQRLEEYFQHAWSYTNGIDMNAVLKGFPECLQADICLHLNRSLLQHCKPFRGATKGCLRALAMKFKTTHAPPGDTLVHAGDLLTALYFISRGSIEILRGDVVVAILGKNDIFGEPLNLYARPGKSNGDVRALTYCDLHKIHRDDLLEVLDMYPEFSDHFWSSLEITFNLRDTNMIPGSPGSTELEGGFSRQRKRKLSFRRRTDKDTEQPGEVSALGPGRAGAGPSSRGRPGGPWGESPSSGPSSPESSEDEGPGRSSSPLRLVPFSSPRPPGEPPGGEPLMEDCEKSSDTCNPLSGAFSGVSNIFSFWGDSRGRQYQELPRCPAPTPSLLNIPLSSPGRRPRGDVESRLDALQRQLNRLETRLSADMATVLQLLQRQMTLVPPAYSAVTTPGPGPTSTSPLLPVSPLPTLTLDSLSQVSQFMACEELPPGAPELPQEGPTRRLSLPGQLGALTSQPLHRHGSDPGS
Experimental: Eight-point concentration curves were generated using serial 3-fold dilutions from the maximum final assay concentration (3 μM). Electrophysiological recordings were made from a Chinese Hamster Lung cell line stably expressing the full length hERG channel. Single cell ionic currents were measured in the perforated patch clamp configuration (100 μg/mL) amphotericin) at room temperature (21-23° C.) using an IonWorks Quattro instrument. The internal solution contained (mM): 140 KCl, 1 MgCl2, 1 EGTA, 20 HEPES and was buffered to pH 7.3. The external solution contained (mM):138 NaCl, 2.7 KCl, 0.9 CaCl2, 0.5 MgCl2, 8 Na2HPO4, 1.5 KH2PO4, also buffered to pH 7.3. Cells were clamped at a holding potential of −70 mV for 30 s and then stepped to +40 mV for 1 s. This was followed by a hyperpolarising step of 1s to −30 mV to evoke the hERG tail current. This sequence was repeated 5 times at a frequency of 0.25 Hz. Currents were measured from the tail step at the 5th pulse, and referenced to the holding current. Compounds were then incubated for 6-7 minutes prior to a second measurement of the hERG signal using an identical pulse train. Eight-point concentration curves were generated using serial 3-fold dilutions from the maximum final assay concentration (3 μM).

[6] = human cryopreserved hepatocytes
[7] = pooled cryopreserved hepatocytes, dog cryopreserved hepatocytes
[8] = pooled cryopreserved hepatocytes, rat cryopreserved hepatocytes
[9] = pooled cryopreserved human hepatocytes

B-Raf, sequence (P15056 whole entry): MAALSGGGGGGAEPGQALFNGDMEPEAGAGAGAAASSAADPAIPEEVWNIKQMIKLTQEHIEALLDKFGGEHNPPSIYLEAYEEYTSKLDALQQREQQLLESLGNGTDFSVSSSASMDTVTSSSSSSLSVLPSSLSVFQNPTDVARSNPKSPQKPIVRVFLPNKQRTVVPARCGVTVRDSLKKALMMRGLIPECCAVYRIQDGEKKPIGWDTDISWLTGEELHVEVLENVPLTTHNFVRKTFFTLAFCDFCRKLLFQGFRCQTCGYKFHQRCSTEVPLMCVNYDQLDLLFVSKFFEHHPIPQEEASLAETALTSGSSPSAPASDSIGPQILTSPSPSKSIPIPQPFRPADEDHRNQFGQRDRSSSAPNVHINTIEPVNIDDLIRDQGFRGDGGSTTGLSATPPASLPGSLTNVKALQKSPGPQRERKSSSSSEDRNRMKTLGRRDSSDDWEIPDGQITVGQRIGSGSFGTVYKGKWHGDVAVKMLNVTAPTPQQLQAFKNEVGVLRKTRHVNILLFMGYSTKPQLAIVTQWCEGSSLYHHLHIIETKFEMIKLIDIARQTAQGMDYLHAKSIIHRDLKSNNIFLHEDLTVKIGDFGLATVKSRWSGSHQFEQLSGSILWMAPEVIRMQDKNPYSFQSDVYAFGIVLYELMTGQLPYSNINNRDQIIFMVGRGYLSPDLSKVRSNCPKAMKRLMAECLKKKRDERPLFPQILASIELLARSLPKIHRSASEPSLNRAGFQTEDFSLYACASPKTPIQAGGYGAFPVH

Row | inhibition at 0.5 µM (B-Raf; read-out: % Inhibition of kinase binding at 500 nM, B-Raf) [%] | SMILES | IL-1b, IL-6 and IL-8 release from biopsies of UC patients [1] | inflammatory cell infiltrate in the reticular and lamina propria zones (BDF1 mice) | activity in the in vivo model of colonic inflammation (histopathology analysis) (BDF1 mice) | ulcer grade and epithelial repair compared to the vehicle control (BDF1 mice) | Mean hepatic extraction ratio (Eh) [2] | microsomal CLint at 0.1 μM [2] [µL/min/mg] | hepatic clearance [2] | Mean hepatic extraction ratio (Eh) ([3]; dog cryopreserved hepatocytes) | Mean hepatic extraction ratio (Eh) [3, 6] | hepatocyte CLint at 0.1 μM [3, 7] [µL/min/1e6 cells] | hepatocyte CLint at 0.1 μM [3, 8] [µL/min/1e6 cells] | hepatocyte CLint at 0.1 μM [3, 9] [µL/min/1e6 cells] | Mean hepatic extraction ratio (Eh) ([3]; rat cryopreserved hepatocytes) | Mean hepatic extraction ratio (Eh) ([4]; dog hepatic microsomes) | microsomal CLint at 0.1 μM ([4]; dog hepatic microsomes) [µL/min/mg] | microsomal CLint at 0.1 μM ([4]; rat hepatic microsomes) [µL/min/mg] | Mean hepatic extraction ratio (Eh) ([4]; rat hepatic microsomes) | IC50 [5] [µM] | effect on the binding of the kinase B-Raf to its standard ligand (B-Raf; KINOMEscan)
1 | 29 | COc1cc(Nc2nccc(Oc3ccc(NC(=O)Nc4cc(C(C)C)nn4-c4ccc(C)cc4)c4ccccc34)n2)cc(C(=O)NCCN2CCOCC2)c1 [Example 8, 3-((4-((4-(3-(3-Isopropyl-1-(p-tolyl)-1H-pyrazol-5-yl)ureido)naphthalen-1-yl)oxy)pyrimidin-2-yl)amino)-5-methoxy-N-(2-morpholinoethyl)benzamide] | – | – | – | – | – | – | – | – | – | – | – | – | – | – | – | – | – | – | –
2 | – | C#Cc1cc(Nc2nccc(Oc3ccc(NC(=O)Nc4cc(C(C)C)nn4-c4ccc(C)cc4)c4ccccc34)n2)cc(C(=O)NCCN2CCOCC2)c1 [Example 46, 3-ethynyl-5-((4-((4-(3-(3-isopropyl-1-(p-tolyl)-1H-pyrazol-5-yl)ureido)naphthalen-1-yl)oxy)pyrimidin-2-yl)amino)-N-(2-morpholinoethyl)benzamide] | markedly reduced | marked reduction | significant activity | marked improvements | – | – | – | – | – | – | – | – | – | – | – | – | – | – | –
3 | – | C#Cc1cc(Nc2nccc(Oc3ccc(NC(=O)Nc4cc(C(C)(C)C)nn4-c4ccc(OC)cc4)c4ccccc34)n2)cc(C(=O)NCCN2CCOCC2)c1 [Example 77, 3-((4-((4-(3-(3-(tert-Butyl)-1-(4-methoxyphenyl)-1H-pyrazol-5-yl)ureido)-naphthalen-1-yl)oxy)pyrimidin-2-yl)amino)-5-ethynyl-N-(2-morpholinoethyl)benzamide] | markedly reduced | marked reduction | significant activity | marked improvements | 0.94 | 308 | high hepatic clearance | 0.87 | 0.69 | 26 | 12 | 16 | 0.55 | 0.94 | 189 | 120 | 0.82 | > 3 | did not have any effect on the binding
4 | – | C#Cc1cc(Nc2nccc(Oc3ccc(NC(=O)Nc4cc(C(C)(C)C)nn4-c4ccc(N(C)C)cc4)c4ccccc34)n2)cc(C(=O)NCCN2CCOCC2)c1 [Example 80, 3-((4-((4-(3-(3-(tert-Butyl)-1-(4-(dimethylamino)phenyl)-1H-pyrazol-5-yl)ureido)naphthalen-1-yl)oxy)pyrimidin-2-yl)amino)-5-ethynyl-N-(2-morpholinoethyl)-benzamide] | – | – | – | – | 0.93 | 216 | high hepatic clearance | 0.73 | <0.61 | 11 | < 8 | < 11 | <0.44 | 0.91 | 146 | 91 | 0.77 | > 3 | –
